Data from patent publication US4371537A, “Sulfur-substituted phenoxypyridines having antiviral activity” (The Dow Chemical Company, priority 1981, dated 1983).
Converted amounts (≈) assume the structure as drawn. Read-outs that look alike come from different tables or passages of the source.

Legend:
[1] = test system: Coxsackie A21 virus (Cox A21); test: Tissue culture testing, Coxsackie A21 virus in HeLa cells; type: cell-based; details: 48 and 72 hours, NA = not active at the standard test conditions, read-out: Cox A21: lowest concentration of the compound necessary to cause a 50 percent reduction in cytopathic effect
Method: (§1) Monolayered HeLa cells in 16 millimeter (mm) tissue culture dishes were treated with 1 ml of culture medium (Eagles medium supplemented with fetal calf serum) containing subject compound at an appropriate concentration or containing no compound at all. Culture media such as those described herein are more fully described in standard texts, as for example, Kuchler's Biochemical Methods in Cell Culture and Virology, Dowden, Hutchinson and Ross, Inc., Stroudsberg, PA (1977). Following treatment, cells were challenged with 0.05 ml of rhinovirus type 1A (RV-1A), rhinovirus type 2 (RV-2) or Coxsackie A21 virus (Cox A21) in culture medium. Some of the compounds were also tested against rhinovirus type 5 (RV-5), rhinovirus type 8 (RV-8) or rhinovirus type 64 (RV-64). Cell controls received no viruses.
(§2) ^2 Lowest concentration of the compound (μg/ml) necessary to cause

rhinovirus type 2 (RV-2) = test: Tissue culture testing, rhinovirus type 2 in HeLa cells; type: cell-based; details: Enterovirus, 48 and 72 hours, NA = not active at the standard test conditions, read-out: RV-2: lowest concentration of the compound necessary to cause a 50 percent reduction in cytopathic effect
Method: as §1, §2

[2] = Cytotoxicity in tissue culture testing (HeLa monolayers); type: cell-based; details: human, HeLa cells
Method: as §1
^1 Cytotoxicity figures represent the concentration of the compound, […]

[3] = test system: rhinovirus type 1A (RV-1A); test: Tissue culture testing, rhinovirus type 1A in HeLa cells; type: cell-based; details: Enterovirus, 48 and 72 hours, NA = not active at the standard test conditions, read-out: RV-1A: lowest concentration of the compound necessary to cause a 50 percent reduction in cytopathic effect
Method: as §1, §2

Coxsackie A21 virus = test: Continuous Oral Feeding test in mice challenged IP with Coxsackie A21 virus; type: in vivo; details: for Continuous Oral Feeding X^2 (chi-square, deaths vs control): 0.06 % in diet, 240 h
Method: Some of the compounds were also tested in animals utilizing the following procedure, hereainafter referred to as the "Continuous Oral Feeding" test. Coxsackie A21 virus grown on HeLa cells was administered at a concentration that produces 80 to 100% deaths in mice weighing 8 to 12 grams within 10 days, when the mice are injected (IP) with 0.2 ml of virus preparation. Mice were placed on diets containing test compound dispersed in plain commercially available rodent mash chow at a concentration of 0.06% (weight percent) on day 0. On day 1 the mice were challenged with the virus preparation, 0.2 ml/mouse, (IP). Deaths in both control and experimental groups were recorded for the 10 days and the results analyzed by a chi-square (.chi.^2) test. Chi-square values greater than 3.84 indicate the compound is active (95% confidence level).

[4] = observed at 48 and 72 hours post-treatment, read-out: Cytotoxicity: concentration of the compound found to be toxic to the cell

EC50 [1]	EC50 (rhinovirus type 2 (RV-2))	EC50 [3]	SMILES	MCC [2, 4]	Continuous Oral Feeding X^2 (chi-square, deaths vs control) (Coxsackie A21 virus)	MCC ([2]; GI = growth inhibition, read-out: Cytotoxicity: concentration at which the compound inhibited the growth of the tissue culture (GI))	Continuous Oral Feeding: toxicity of the test compound at the indicated dosage (Coxsackie A21 virus; 0.06% in diet, "toxic" = significantly toxic at the indicated dosage)
25 µg/mL (≈ 64.7 µM)	12.5 µg/mL (≈ 32.4 µM)	25 µg/mL (≈ 64.7 µM)	O=S(=O)(c1ccc(Oc2ccc(Cl)c(Cl)c2)nc1)C1CCCCC1 [Example 58, 2-(3,4-dichlorophenoxy)-5-(cyclohexylsulfonyl)pyridine]	50 µg/mL	–	–	–
< 3.12 µg/mL	12.5 µg/mL (≈ 29.7 µM)	3.12 µg/mL (≈ 7.41 µM)	O=C(c1ccccc1)c1ccc(Oc2ccc(S(=O)(=O)C3CCCCC3)cn2)cc1 [Example 59, (4-((5-(cyclohexylsulfonyl)-2-pyridinyl)oxy)phenyl)phenylmethanone]	12.5 µg/mL	–	–	–
< 3.12 µg/mL	–	25 µg/mL (≈ 58.2 µM)	O=C(c1ccccc1)c1ccc(Oc2ccc(S(=O)(=O)Cc3ccccc3)cn2)cc1 [Example 62, phenyl(4-((5-((phenylmethyl)sulfonyl)-2-pyridinyl)oxy)phenyl)methanone]	–	0.066	50 µg/mL	–
< 3.12 µg/mL	25 µg/mL (≈ 78.6 µM)	25 µg/mL (≈ 78.6 µM)	CS(=O)(=O)c1ccnc(Oc2ccc(Cl)c(Cl)c2)c1 [Example 65, 2-(3,4-dichlorophenoxy)-4-(methylsulfonyl)pyridine]	50 µg/mL	–	–	–
12.5 µg/mL (≈ 39.3 µM)	12.5 µg/mL (≈ 39.3 µM)	12.5 µg/mL (≈ 39.3 µM)	CS(=O)(=O)c1cc(Oc2ccc(Cl)c(Cl)c2)ccn1 [Example 66, 4-(3,4-dichlorophenoxy)-2-(methylsulfonyl)pyridine]	25 µg/mL	–	–	–
–	25 µg/mL (≈ 76.2 µM)	25 µg/mL (≈ 76.2 µM)	CS(=O)(=O)c1cccc(Oc2ccc(Br)cc2)n1 [Example 70, 2-(4-bromophenoxy)-6-(methylsulfonyl)pyridine]	25 µg/mL	0.035	–	–
50 µg/mL (≈ 157 µM)	50 µg/mL (≈ 157 µM)	25 µg/mL (≈ 78.6 µM)	CS(=O)(=O)c1cccnc1Oc1ccc(Cl)c(Cl)c1 [Example 71, 2-(3,4-dichlorophenoxy)-3-(methylsulfonyl)pyridine]	50 µg/mL	–	–	–
12.5 µg/mL (≈ 35.4 µM)	25 µg/mL (≈ 70.7 µM)	25 µg/mL (≈ 70.7 µM)	CS(=O)(=O)c1cccnc1Oc1ccc(C(=O)c2ccccc2)cc1 [Example 72, (4-((3-(methylsulfonyl)-2-pyridinyl)oxy)phenyl)phenylmethanone]	25 µg/mL	–	–	–
–	25 µg/mL (≈ 75.3 µM)	25 µg/mL (≈ 75.3 µM)	CCS(=O)(=O)c1cccnc1Oc1ccc(Cl)c(Cl)c1 [Example 73, 2-(3,4-dichlorophenoxy)-3-(ethylsulfonyl)pyridine]	25 µg/mL	–	–	–
3.12 µg/mL (≈ 10.9 µM)	6.25 µg/mL (≈ 21.8 µM)	6.25 µg/mL (≈ 21.8 µM)	CSc1cncc(Oc2ccc(Cl)c(Cl)c2)c1 [Example 75, 3-(3,4-dichlorophenoxy)-5-(methylthio)pyridine]	6.25 µg/mL	–	–	–
25 µg/mL (≈ 82.7 µM)	6.25 µg/mL (≈ 20.7 µM)	12.5 µg/mL (≈ 41.4 µM)	C[S+]([O-])c1cncc(Oc2ccc(Cl)c(Cl)c2)c1 (centres unmarked) [Example 76, 3-(3,4-dichlorophenoxy)-5-(methylsulfinyl)pyridine]	25 µg/mL	–	–	–
3.12 µg/mL (≈ 9.82 µM)	12.5 µg/mL (≈ 39.3 µM)	6.25 µg/mL (≈ 19.6 µM)	CS(=O)(=O)c1cncc(Oc2ccc(Cl)c(Cl)c2)c1 [Example 77, 3-(3,4-dichlorophenoxy)-5-(methylsulfonyl)pyridine]	> 50 µg/mL	–	–	–

SMILES	EC50 [1]	EC50 (rhinovirus type 2 (RV-2))	EC50 [3]	MCC [2, 4]	Continuous Oral Feeding X^2 (chi-square, deaths vs control) (Coxsackie A21 virus)	MCC ([2]; GI = growth inhibition, read-out: Cytotoxicity: concentration at which the compound inhibited the growth of the tissue culture (GI))	Continuous Oral Feeding: toxicity of the test compound at the indicated dosage (Coxsackie A21 virus; 0.06% in diet, "toxic" = significantly toxic at the indicated dosage)
CS(=O)(=O)c1cccc(Oc2ccc(Cl)c(Cl)c2)n1 [Example 67, 2-(3,4-dichlorophenoxy)-6-(methylsulfonyl)pyridine]	~50 µg/mL (≈ 157 µM)	12.5 µg/mL (≈ 39.3 µM)	3.12 µg/mL (≈ 9.82 µM)	50 µg/mL	7.39	–	toxic
